Source: patent US11040028B2, “Penicinotam derivative, preparation method and use thereof” (OCEAN UNIVERSITY OF CHINA, priority 2017, dated 2021)

Experiments:
BHK-21 cells = experiment: Anti-fibrosis activity test: inhibition of BHK-21 cell proliferation (CCK-8); assay type: cell-based; conditions: Mesocricetus auratus, BHK-21, 48 h
How it was run: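 BHK-21 cells seeded at 2×10^4 cells/mL, allowed to adhere 24 h at 37° C, 5% CO2, then exposed to compounds at graded concentrations in triplicate for 48 h. CCK-8 added for 2 h and absorbance read at 450 nm; inhibition rate taken as (1−Ai/Ao)×100% and IC50 fitted.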

[1] = test system: human lung fibroblasts HFL1; experiment: Anti-fibrosis activity test: inhibition of proliferation of human lung fibroblasts HFL1 (CCK-8); assay type: cell-based; conditions: Homo sapiens, HFL1, 48 h
How it was run: (§1)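 Using CCK-8 colorimetry (450 nm), the study assessed growth inhibition after 48 h compound exposure; plating density was 2×10^4 cells/mL with 24 h attachment beforehand. IC50 was calculated from (1−Ai/Ao)×100%.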

[2] = test system: human hepatic stellate cells LX-2; experiment: Anti-fibrosis activity test: inhibition of proliferation of human hepatic stellate cells LX-2 (CCK-8); assay type: cell-based; conditions: Homo sapiens, 48 h
How it was run: as §1

[3] = test system: human fibrosarcoma cells HT-1080; experiment: Anti-fibrosis activity test: inhibition of proliferation of human fibrosarcoma cells HT-1080 (CCK-8); assay type: cell-based; conditions: Homo sapiens, HT-1080, 48 h
How it was run: as §1

[4] = test system: human dermal fibroblasts CCC-ESF-1; experiment: Anti-fibrosis activity test: inhibition of proliferation of human dermal fibroblasts CCC-ESF-1 (CCK-8); assay type: cell-based; conditions: Fibroblast
How it was run: as §1

[5] = test system: human embryonic lung fibroblast IMR-90; experiment: Anti-fibrosis activity test: inhibition of proliferation of human embryonic lung fibroblast IMR-90 (CCK-8); assay type: cell-based
How it was run: as §1

[6] = test system: cardiac fibroblast RAT-iCell-C002; experiment: Anti-fibrosis activity test: inhibition of proliferation of cardiac fibroblast RAT-iCell-C002 (CCK-8); assay type: cell-based; conditions: Cardiac fibroblast, 48 h
How it was run: as §1

[7] = pirfenidone, stated as known property; cited from earlier work
NF-κB = experiment: Immunological activity test: inhibition of NF-κB activity; assay type: cell-based; conditions: initial concentration of 30 μM; a/b isomers given as first/second symbol; read-out: IC50 (μM), inhibitory activity against NF-κB
How it was run: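 Parthenolide as positive control; starting test concentration 30 μM; inhibition of NF-κB activity analysed further to yield IC50.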

[8] = test system: mouse macrophages (RAW264.7); experiment: Lipopolysaccharide-induced NO secretion in macrophages (Griess); assay type: cell-based; conditions: Mus musculus, RAW264.7, 24 h, RAW264.7, LPS 1 μg/ml, a/b isomers given as first/second symbol, read-out: IC50 (μM), inhibition of lipopolysaccharide-induced NO secretion in macrophages
How it was run: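 Indomethacin and resveratrol served as positive controls while compounds were tested across concentrations on LPS-stimulated (1 μg/ml, 24 h) RAW264.7 cells. NO output was quantified colorimetrically (Griess, 548 nm).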

[9] = CCK-8, 48 hours after administration
[10] = human lung fibroblasts HFL1, CCK-8, 48 hours
[11] = human hepatic stellate cells LX-2, CCK-8, 48 hours
[12] = human fibrosarcoma cells HT-1080, CCK-8, 48 hours
[13] = human dermal fibroblasts CCC-ESF-1, CCK-8, 48 hours
[14] = human embryonic lung fibroblast IMR-90, CCK-8, 48 hours
[15] = cardiac fibroblast RAT-iCell-C002, CCK-8, 48 hours
[16] = Homo sapiens, CCC-ESF-1 cells, 48 h, CCK-8
[17] = Homo sapiens, IMR-90 cells, 48 h, CCK-8

SMILES | IC50 [3, 12] | IC50 (NF-κB) | IC50 [8] | IC50 ([3]; HT-1080 cells, 48 h, CCK-8) | IC50 (BHK-21 cells; [9]) | IC50 [1, 10] | IC50 [2, 11] | IC50 [4, 13] | IC50 [5, 14] | IC50 [6, 15] | phototoxic reactions [7] | IC50 (BHK-21 cells; 48 h, CCK-8) | IC50 ([1]; HFL1 cells, 48 h, CCK-8) | IC50 ([2]; LX-2, 48 h, LX-2 cells, CCK-8) | IC50 [4, 16] | IC50 [5, 17] | IC50 ([6]; RAT-iCell-C002 cells, CCK-8)
COc1cccc2c(=O)c3c([nH]c12)-c1cccn1C3=O [Compound 446a, 5-Methoxy-9H-pyrrolizino[1,2-b]quinoline-9,10(4H)-dione] | 0.05 to 5 mM | 0.1 to 1 µM | 1 to 10 µM |  | 0.05 to 5 mM | 0.05 to 5 mM | 0.05 to 5 mM | 0.05 to 5 mM | 0.05 to 5 mM | 0.05 to 5 mM |  |  |  |  |  |  | 
O=C1c2c(n(Cc3ccc(F)c(F)c3F)c3ccccc3c2=O)-c2cccn21 [Compound 584a, 4-(2,3,4-Trifluorobenzyl)-9H-pyrrolizino[1,2-b]quinoline-9,10(4H)-dione] | < 0.05 mM | 0.1 to 1 µM | 1 to 10 µM |  | < 0.05 mM | 0.05 to 5 mM | 0.05 to 5 mM | 0.05 to 5 mM | 0.05 to 5 mM | 0.05 to 5 mM |  |  |  |  |  |  | 
O=C1c2c(n(Cc3ccc(Br)cc3F)c3ccccc3c2=O)-c2cccn21 [Compound 606a, 4-(4-Bromo-2-fluorobenzyl)-9H-pyrrolizino[1,2-b]quinoline-9,10(4H)-dione] | < 0.05 mM | 0.1 to 1 µM | 1 to 10 µM |  | < 0.05 mM | 0.05 to 5 mM | 0.05 to 5 mM | 0.05 to 5 mM | 0.05 to 5 mM | 0.05 to 5 mM |  |  |  |  |  |  | 
COc1cccc2nc3c(c(O)c12)C(=O)n1cccc1-3 [Compound 473b, 9-hydroxy-8-methoxy-10H-pyrrolizino[1,2-b]quinolin-10-one] | 0.05 to 5 mM | 1 to 10 µM | 1 to 10 µM |  | 0.05 to 5 mM | 0.05 to 5 mM | 0.05 to 5 mM | 0.05 to 5 mM | 0.05 to 5 mM | 0.05 to 5 mM |  |  |  |  |  |  | 
O=C1c2c([nH]c3ccc(C(F)(F)F)cc3c2=O)-c2cccn21 [Compound 282a, 7-(Trifluoromethyl)-9H-pyrrolizino[1,2-b]quinoline-9,10(4H)-dione] | 0.05 to 5 mM | 1 to 10 µM | 1 to 10 µM |  | 0.05 to 5 mM | 0.05 to 5 mM | 0.05 to 5 mM | 0.05 to 5 mM | 0.05 to 5 mM | 0.05 to 5 mM |  |  |  |  |  |  | 
O=C(O)COc1c2c(nc3ccc(C(F)(F)F)cc13)-c1cccn1C2=O [Compound 279b, 2-((10-Oxo-7-(trifluoromethyl)-10H-pyrrolizino[1,2-b]quinolin-9-yl)oxy)acetic acid] | 0.05 to 5 mM | 1 to 10 µM | 0.1 to 1 µM |  | 0.05 to 5 mM | 0.05 to 5 mM | 0.05 to 5 mM | 0.05 to 5 mM | 0.05 to 5 mM | 0.05 to 5 mM |  |  |  |  |  |  | 
O=C1c2c(n(CCO)c3ccccc3c2=O)-c2cccn21 [Compound 11a, 4-(2-Hydroxyethyl)-9H-pyrrolizino[1,2-b]quinoline-9,10(4H)-dione] | 0.05 to 5 mM | 1 to 10 µM | 1 to 10 µM |  | 0.05 to 5 mM | 0.05 to 5 mM | 0.05 to 5 mM | 0.05 to 5 mM | 0.05 to 5 mM | 0.05 to 5 mM |  |  |  |  |  |  | 
N#Cc1ccc2c(O)c3c(nc2c1)-c1cccn1C3=O [Compound 512b, 9-hydroxy-10-oxo-10H-pyrrolizino[1,2-b]quinoline-6-carbonitrile] | 0.05 to 5 mM | 10 to 50 µM | 1 to 10 µM |  | 0.05 to 5 mM | 0.05 to 5 mM | < 0.05 mM | 0.05 to 5 mM | 0.05 to 5 mM | 0.05 to 5 mM |  |  |  |  |  |  | 
O=C1c2c(n(Cc3cccc(F)c3)c3c(F)cccc3c2=O)-c2cccn21 [Compound 458a, 5-Fluoro-4-(3-fluorobenzyl)-9H-pyrrolizino[1,2-b]quinoline-9,10(4H)-dione] | 0.05 to 5 mM | 0.1 to 1 µM | 1 to 10 µM |  | < 0.05 mM | 0.05 to 5 mM | 0.05 to 5 mM | 0.05 to 5 mM | 0.05 to 5 mM | 0.05 to 5 mM |  |  |  |  |  |  | 
O=C1c2c(n(Cc3ccc(Cl)cc3)c3ccccc3c2=O)-c2cccn21 [Compound 589a, 4-(4-Chlorobenzyl)-9H-pyrrolizino[1,2-b]quinoline-9,10(4H)-dione] | 0.05 to 5 mM | 1 to 10 µM | 1 to 10 µM |  | < 0.05 mM | 0.05 to 5 mM | < 0.05 mM | 0.05 to 5 mM | 0.05 to 5 mM | 0.05 to 5 mM |  |  |  |  |  |  | 
C#CCOc1c2c(nc3ccccc13)-c1cccn1C2=O [Compound 7b, 9-(prop-2-yn-1-yloxy)-10H-pyrrolizino[1,2-b]quinolin-10-one] | 0.05 to 5 mM | 1 to 10 µM | 0.1 to 1 µM |  | 0.05 to 5 mM | 0.05 to 5 mM | 0.05 to 5 mM | < 0.05 mM | 0.05 to 5 mM | 0.05 to 5 mM |  |  |  |  |  |  | 
O=C1c2c(nc3c(F)cccc3c2O)-c2cccn21 [Compound 444b, 5-fluoro-9-hydroxy-10H-pyrrolizino[1,2-b]quinolin-10-one] | 0.05 to 5 mM | 1 to 10 µM | 1 to 10 µM |  | 0.05 to 5 mM | 0.05 to 5 mM | 0.05 to 5 mM | 0.05 to 5 mM | 0.05 to 5 mM | 0.05 to 5 mM |  |  |  |  |  |  | 

Second part, led by results:

IC50 [3, 12] | IC50 (NF-κB) | IC50 [8] | IC50 ([3]; HT-1080 cells, 48 h, CCK-8) | SMILES | IC50 (BHK-21 cells; [9]) | IC50 [1, 10] | IC50 [2, 11] | IC50 [4, 13] | IC50 [5, 14] | IC50 [6, 15] | phototoxic reactions [7] | IC50 (BHK-21 cells; 48 h, CCK-8) | IC50 ([1]; HFL1 cells, 48 h, CCK-8) | IC50 ([2]; LX-2, 48 h, LX-2 cells, CCK-8) | IC50 [4, 16] | IC50 [5, 17] | IC50 ([6]; RAT-iCell-C002 cells, CCK-8)
20 to 100 mM |  |  |  | Cc1ccc(=O)n(-c2ccccc2)c1 [pirfenidone, reference compound] | 20 to 100 mM | 5 to 20 mM | 20 to 100 mM | 20 to 100 mM | 20 to 100 mM | 20 to 100 mM | phototxic reactions, which are produced by pirfenidone |  |  |  |  |  | 
 | 1 to 10 µM | 0.1 to 1 µM | 0.05 to 5 mM | Cc1cc2[nH]c3c(c(=O)c2cc1C)C(=O)n1cccc1-3 [Compound 756a, 6,7-Dimethyl-9H-pyrrolizino[1,2-b]quinoline-9,10(4H)-dione] |  |  |  |  |  |  |  | 0.05 to 5 mM | 0.05 to 5 mM | 0.05 to 5 mM | 0.05 to 5 mM | 0.05 to 5 mM | 0.05 to 5 mM
 | 1 to 10 µM | 1 to 10 µM | 0.05 to 5 mM | Cc1ccc2n1C(=O)c1nc3ccccc3c(O)c1-2 [Compound 799b, 11-hydroxy-3-methyl-5H-pyrrolizino[2,1-b]quinolin-5-one] |  |  |  |  |  |  |  | 0.05 to 5 mM | 0.05 to 5 mM | 0.05 to 5 mM | 0.05 to 5 mM | 0.05 to 5 mM | 0.05 to 5 mM
 | 1 to 10 µM | 1 to 10 µM | 0.05 to 5 mM | Cc1cc(C)c2nc3c(c(O)c2c1)C(=O)n1cccc1-3 [Compound 750b, 9-hydroxy-5,7-dimethyl-10H-pyrrolizino[1,2-b]quinolin-10-one] |  |  |  |  |  |  |  | 0.05 to 5 mM | 0.05 to 5 mM | 0.05 to 5 mM | 0.05 to 5 mM | 0.05 to 5 mM | 0.05 to 5 mM
 | 1 to 10 µM | 1 to 10 µM | 0.05 to 5 mM | O=C1c2c(nc3ccccc3c2OCCN2CCCCC2)-c2cccn21 [Compound 665b, 9-(2-(piperidin-1-yl)ethoxy)-10H-pyrrolizino[1,2-b]quinolin-10-one] |  |  |  |  |  |  |  | 0.05 to 5 mM | 0.05 to 5 mM | 0.05 to 5 mM | 0.05 to 5 mM | 0.05 to 5 mM | 0.05 to 5 mM
